Source: patent US9090586B2, “Heterocyclic compound” (TAKEDA PHARMACEUTICAL COMPANY LIMITED, priority 2010, dated 2015)

Tests used:
[1] = target: T1, human PDE10A enzyme (Homo sapiens, UniProt Q9Y233); assay: PDE10A enzyme activity inhibition test (SPA); type: biochemical; conditions: for inhibition at 0.1 µM: 100 nM compound, read-out: Inhibition rate (%) (100 nM); for IC50: [3H]cGMP substrate
T1 construct: Human PDE10A full-length gene was transfected into Sf9 or COS-7 cells; His-tag; made in house; host or cells: Sf9 or COS-7 cells
T1 sequence (Q9Y233 267-1055): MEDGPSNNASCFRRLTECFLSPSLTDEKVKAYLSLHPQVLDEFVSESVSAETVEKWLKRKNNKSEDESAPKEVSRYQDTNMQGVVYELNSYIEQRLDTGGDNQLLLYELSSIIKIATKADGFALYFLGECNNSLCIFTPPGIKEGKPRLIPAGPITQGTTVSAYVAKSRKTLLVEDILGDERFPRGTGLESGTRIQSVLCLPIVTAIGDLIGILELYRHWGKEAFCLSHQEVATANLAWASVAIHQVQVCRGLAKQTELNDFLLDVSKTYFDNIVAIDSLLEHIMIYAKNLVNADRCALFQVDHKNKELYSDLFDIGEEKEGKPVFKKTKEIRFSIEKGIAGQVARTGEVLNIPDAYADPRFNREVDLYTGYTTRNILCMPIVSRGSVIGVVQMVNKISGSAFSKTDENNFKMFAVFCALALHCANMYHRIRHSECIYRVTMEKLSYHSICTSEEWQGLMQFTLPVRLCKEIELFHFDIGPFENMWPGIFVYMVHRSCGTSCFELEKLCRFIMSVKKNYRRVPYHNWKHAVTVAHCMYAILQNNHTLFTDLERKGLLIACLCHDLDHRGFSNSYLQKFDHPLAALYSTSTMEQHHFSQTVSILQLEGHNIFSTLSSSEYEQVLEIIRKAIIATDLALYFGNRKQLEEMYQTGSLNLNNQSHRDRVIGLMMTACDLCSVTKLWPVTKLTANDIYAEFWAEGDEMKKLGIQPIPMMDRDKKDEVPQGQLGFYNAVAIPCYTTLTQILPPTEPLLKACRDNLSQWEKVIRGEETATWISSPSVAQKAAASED
Description: Human PDE10A full-length gene was transfected into Sf9 or COS-7 cells, the cells were disrupted and centrifuged, and human PDE10A enzyme was obtained from the residue. The enzyme extracted from Sf9 cells was partially purified using His-tag affinity column. The enzyme was stored at −70° C. until use. The PDE activity was measured using an SPA (Scintillation Proximity Assay) (GE Healthcare). To measure the inhibitory activity of the compound, 10 μL of serially diluted compound was reacted with 20 μL of PDE enzyme in an assay buffer (50 mM HEPES-NaOH, 8.3 mM MgCl2, 1.7 mM EGTA, 0.1% BSA (pH 7.4)) […] at room temperature. The final concentration of DMSO in the reaction mixture was 1 percent. The compounds were evaluated in duplicate in 96-well half-area plates (Corning). To start the reaction, 10 μL of substrate [^3H] cGMP (25 and 50 nM; GE Healthcare and PerkinElmer, respectively) was added to 40 μL. After 60 min of reaction at room temperature, yttrium SPA beads containing zinc sulphate were added (6 mg/mL, 20 μL) to terminate the PDE reaction. After standing still for 1 hr, the measurement was performed using a scintillation counter (PerkinElmer) and the PDE10A enzyme activity inhibition rate was calculated. The inhibition rate was calculated based on the control containing enzyme and DMSO as 0% and the control without enzyme as 100%.

melting point [°C]	inhibition at 0.1 µM [1] [%]	IC50 [1] [µM]	Structure (SMILES)
	97	≤ 0.01	COc1nc(-n2cc(F)c(F)c2)ccc1-n1cc(OC)c(=O)c(-c2ccnn2-c2ccccc2)n1 [Example 53, 1-[6-(3,4-difluoro-1H-pyrrol-1-yl)-2-methoxypyridin-3-yl]-5-methoxy-3-(1-phenyl-1H-pyrazol-5-yl)pyridazin-4(1H)-one]
	101	≤ 0.01	COc1cn(-c2cnn(CC3(C)CC3)c2)nc(-c2ccnn2-c2ccccc2)c1=O [Example 54, 5-methoxy-1-{1-[(1-methylcyclopropyl)methyl]-1H-pyrazol-4-yl}-3-(1-phenyl-1H-pyrazol-5-yl)pyridazin-4(1H)-one]

The next lines start with the molecule.

Structure (SMILES)	melting point [°C]	inhibition at 0.1 µM [1] [%]	IC50 [1] [µM]
COc1cn(-c2ccc(-n3cccn3)cc2F)nc(-c2ccnn2CC(F)(F)F)c1=O [Example 6, 1-[2-fluoro-4-(1H-pyrazol-1-yl)phenyl]-5-methoxy-3-[1-(2,2,2-trifluoroethyl)-1H-pyrazol-5-yl]pyridazin-4(1H)-one]	185 to 187		
COc1cn(-c2ccc(-n3cc(F)c(F)c3)cc2O)nc(-c2ccnn2-c2ccccc2)c1=O [Example 11, 1-[4-(3,4-difluoro-1H-pyrrol-1-yl)-2-hydroxyphenyl]-5-methoxy-3-(1-phenyl-1H-pyrazol-5-yl)pyridazin-4(1H)-one]	241 to 243		
COc1nc(N2CC(F)(F)C(F)(F)C2)ccc1-n1cc(OC)c(=O)c(-c2ccnn2-c2ccccc2)n1 [Example 52, 5-methoxy-1-[2-methoxy-6-(3,3,4,4-tetrafluoropyrrolidin-1-yl)pyridin-3-yl]-3-(1-phenyl-1H-pyrazol-5-yl)pyridazin-4(1H)-one]		101	≤ 0.01
